Series [1] is described as follows: Thermodynamic relationship between Form 1 and Form 2 calculated from DSC melting data (method of Lian Yu). The series is classed as physicochemical. The following applies: for transition temperature: Form 2 T=110.35° C., ΔH=83.43 J/g; for thermodynamic relationship between the polymorphs (monotropic or enantiotropic): based on DSC data. Here is the method: For a polymorphic substance, a property of particular interest is the relative thermodynamic stability of the polymorphs. The questions to be answered are the following:
b) for an enantiotropic system, where (Tt) lies.
The thermodynamic relationship between Form 1 and Form 2 of compound of Formula (I) was calculated using the melting data of polymorphs measured by DSC, according to what disclosed in: Lian Yu, Journal of Pharmaceutical Science, Vol. 84, No. 8, August 1995.
Taking samples of Form 1 and Form 2 as pure forms 1 and 2 respectively, and using the melting point and the ΔH obtainable by DSC data, it was possible to calculate the thermodynamic relationship and the transition temperature.
The above calculation has been performed using DSC data for a different sample of polymorph Form 1 of compound of Formula (I), showing the Differential Scanning Calorimetry (DSC) thermogram of FIG. 7, obtained by the same method discussed above.

Series [2] in a line: Slurry conversion of a mixture of the two polymorphs, solid examined by XRPD. The series is classed as physicochemical. The following applies: 20.4 mg Form 1 + 21.3 mg Form 2 in saturated ethyl acetate/heptane=1/2 solution of Form 1, stirred at RT one day. Here is the method: A saturated solution in ethyl acetate/heptane=½ of Form 1 of compound of Formula (I) (25 mg in 400 μL) was prepared.
20.4 mg of solid Form 1 of compound of Formula (I) were mixed with 21.3 mg of solid Form 2 of compound of Formula (I). That solid mixture was added to the above saturated solution. The slurry so obtained was stirred at RT one day long. The day after, the solid and liquid phase were separated by centrifugation, and the solid was simply left on air in order to dry and then examined by XPRD.

The mark [3] stands for this setting: Form 1 sample of FIG. 6 (T=102.44° C., ΔH=71.18 J/g).
[4] abbreviates: Form 1 sample of FIG. 7 (T=100.09° C., ΔH=75.46 J/g).

Structures are written as SMILES.

For `CC[C@H](Nc1cc(C)nc2c(-c3ccc(OC)cc3C)c(C)nn12)c1nc(C)no1` [Form 2, [3-(4-methoxy-2-methyl-phenyl)-2,5-dimethyl-pyrazolo[1,5-a]pyrimidin-7-yl]-[(S)-1-(3-methyl-[1,2,4]oxadiazol-5-yl)-propyl]-amine], the transition temperature was 177 °C in series [1] (setting [3]) and 356 °C in series [1] (setting [4]). Further, in series [1], the “thermodynamic relationship between the polymorphs (monotropic or enantiotropic)” value is listed as “monotropic relationship”. In addition, the “solid form after slurrying a mixture of Form 1 and Form 2” value in series [2] is “the solid was only constituted by Form 2”.

Regarding `CC[C@H](Nc1cc(C)nc2c(-c3ccc(OC)cc3C)c(C)nn12)c1nc(C)no1` [Form 1, [3-(4-Methoxy-2-methyl-phenyl)-2,5-dimethyl-pyrazolo[1,5-a]pyrimidin-7-yl]-[(S)-1-(3-methyl-[1,2,4]oxadiazol-5-yl)-propyl]-amine], the transition temperature in series [1] (setting [3]) is 177 °C; in series [1] (setting [4]), 356 °C. Moreover, the “thermodynamic relationship between the polymorphs (monotropic or enantiotropic)” value in series [1] was “monotropic relationship”.

The values are drawn from patent publication US8088779B2, “Pyrazolo [1,5-alpha] pyrimidinyl derivatives useful as corticotropin-releasing factor (CRF) receptor antagonists” (SmithKline Beecham (Cork) Limited, priority 2005, dated 2012).
